Source: patent US7049317B2, “CCR-3 receptor antagonists” (Syntex (U.S.A.) LLC, priority 2001, dated 2006)

Key:
CCR-3 receptor = target: T1, CCR-3 receptor (Homo sapiens, UniProt P51677); assay: CCR-3 Receptor Binding Assay, inhibition of 125I eotaxin binding to CCR-3 L1.2 transfectant cells; conditions: 1 hour at room temperature
T1 construct: expressed in transfected cells; host or cells: L1.2 cells (murine pre-B lymphoma line)
T1 sequence (P51677 1-355): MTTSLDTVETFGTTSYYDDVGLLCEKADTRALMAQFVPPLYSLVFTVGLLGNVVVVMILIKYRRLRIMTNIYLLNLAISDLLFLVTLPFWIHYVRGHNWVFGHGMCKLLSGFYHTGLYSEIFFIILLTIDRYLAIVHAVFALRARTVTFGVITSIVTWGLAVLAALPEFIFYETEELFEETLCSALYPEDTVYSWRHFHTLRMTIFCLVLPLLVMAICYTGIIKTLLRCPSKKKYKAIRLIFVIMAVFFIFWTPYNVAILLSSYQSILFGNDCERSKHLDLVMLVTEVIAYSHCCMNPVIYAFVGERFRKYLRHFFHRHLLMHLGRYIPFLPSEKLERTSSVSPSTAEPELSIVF
Description: The CCR-3 antagonistic activity of the compounds of the invention was determined by their ability to inhibit the binding of ^125I eotaxin to CCR-3 L1.2 transfectant cells (see Ponath, P. D. et al., J. Exp. Med., Vol. 183, 2437–2448, (1996)).
The assay was performed in Costar 96-well polypropylene round bottom plates. Test compounds were dissolved in DMSO and then diluted with binding buffer (50 mM HEPES, 1 mM CaCl2, 5 mM MgCl2, 0.5% bovine serum albumin (BSA), 0.02% sodium azide, pH 7.24) such that the final DMSO concentration was 2%. 25 μl of the test solution or only buffer with DMSO (control samples) was added to each well, followed by the addition of 25 μl of ^125I-eotaxin ([…]) (NEX314, New England Nuclear, Boston, Mass.) and 1.5×10^5 of the CCR-3 L1.2 transfected cells in 25 μl binding buffer. The final reaction volume was 75 μl.
After incubating the reaction mixture for 1 hour at room temperature, the reaction was terminated by filtering the reaction mixture through polyethylenimine treated Packard Unifilter GF/C filter plate (Packard, Chicago, Ill.). The filters were washed four times with ice cold wash buffer containing 10 mm HEPES and 0.5M sodium chloride (pH 7.2) and dried at 65° C. for approximately 10 minutes. 25 μl/well of Microscint-20® scintillation fluid (Packard) was added and the radioactivity retained on the filters was determined by using the Packard TopCount®

| Compound | melting point | IC50 (CCR-3 receptor) |
| --- | --- | --- |
| COc1cc(NC(=O)N[C@@H]2CCC[C@H]2NCCc2ccc(Cl)cc2)cc(OC)c1OC.Cl (racemic) | 97 to 101.5 °C |  |
| CN(CCc1ccc(Cl)cc1)[C@@H]1CCC[C@H]1NC(=O)c1ccc(S(C)(=O)=O)cc1.Cl (racemic) | 179 to 179.3 °C |  |
| COc1cc(NC(=O)N[C@@H]2CCC[C@H]2NCCCc2ccc(Cl)cc2)cc(OC)c1OC.Cl (racemic) | 91.3 to 96 °C |  |
| CS(=O)(=O)c1ccc(C(=O)N[C@@H]2CCC[C@H]2NCCc2ccc(Cl)cc2)cc1.Cl (racemic) | 221.8 to 222.7 °C |  |
| COc1ccc(-c2cnc(SCC(=O)N[C@@H]3CCC[C@H]3NCCCc3ccc(Cl)cc3)nc2)cc1OC.Cl (racemic) [Compound 1, (±)-trans-N-{2-[3-(4-Chlorophenyl)propylamino]cyclopentyl}-2-[5-(3,4-dimethoxyphenyl)pyrimidin-2-ylsulfanyl]acetamide hydrochloride] | 95.3 to 111.3 °C | 18.2 µM |
| CN(CCCc1ccc(Cl)cc1)[C@@H]1CCC[C@H]1NC(=O)c1ccc(S(C)(=O)=O)cc1.Cl (racemic) | 109 to 113 °C |  |
| COc1ccc(-c2cnc(SCC(=O)N[C@@H]3CCC[C@H]3N(C)CCc3ccc(Cl)cc3)nc2)cc1OC.Cl (racemic) | 123.7 to 125.3 °C |  |

The remaining lines, values ahead:

| melting point | IC50 (CCR-3 receptor) | Compound |
| --- | --- | --- |
| 91.5 to 98.5 °C | 5.6 µM | COc1ccc(-c2cnc(SCC(=O)N[C@@H]3CCC[C@H]3N(C)CCCc3ccc(Cl)cc3)nc2)cc1OC.Cl (racemic) [Compound 9, (±)-trans-N-(2-{[3-(4-Chlorophenyl)propyl]methylamino}-cyclopentyl)-2-[5-(3,4-dimethoxyphenyl)pyrimidin-2-ylsulfanyl]acetamide hydrochloride] |
| 181.3 to 185.6 °C |  | COc1ccc(-c2cnc(SCC(=O)N[C@@H]3CCC[C@H]3NCCc3ccc(Cl)cc3)nc2)cc1OC.Cl (racemic) |
| 75 to 82 °C |  | COc1cc(NC(=O)N[C@@H]2CCC[C@H]2N(C)CCCc2ccc(Cl)cc2)cc(OC)c1OC.Cl (racemic) |
| 97 to 105 °C | 5.4 µM | COc1cc(NC(=O)N[C@@H]2CCC[C@H]2N(C)CCc2ccc(Cl)cc2)cc(OC)c1OC.Cl (racemic) [Compound 6, (±)-trans-1-(2-{[2-(4-Chlorophenyl)ethyl]methylamino}cyclopentyl)-3-(3,4,5-trimethoxyphenyl)urea hydrochloride] |
| 192.3 to 196.8 °C | 6.8 µM | CS(=O)(=O)c1ccc(C(=O)N[C@@H]2CCC[C@H]2NCCCc2ccc(Cl)cc2)cc1.Cl (racemic) [Compound 2, (±)-trans-N-{2-[3-(4-Chlorophenyl)propylamino]cyclopentyl}-4-methanesulfonylbenzamide hydrochloride] |
